Reference: PMC7496268, “Activity‐Directed Synthesis of Inhibitors of the p53/hDM2 Protein–Protein Interaction” (Chemistry (Weinheim an Der Bergstrasse, Germany), 2020)

target: T1, hDM2 (Homo sapiens, UniProt Q00987); experiment: 1H-15N HSQC NMR titration; details: read-out: NMR Binding^[d] (K d/μM)
T1 construct: gene MDM2; 15N-labelled for NMR; the anisotropy footnote prints hDM2_17-25, apparently a misprint of 17-125
From the text: 1H-15N HSQC NMR titration on hDM2

In order of rising Kd:
1. O=C(COC1CCc2cc(Cl)ccc21)N1CCC(c2ccccc2)C1 (centres unmarked) [P2]  34 ± 13 µM
2. CN(C(=O)C(=O)c1ccc(Cl)cc1)c1ccc(Cl)cc1 [P4]  35 ± 16 µM

target: T1, hDM2; experiment: fluorescence anisotropy competition, displacement of fluorescein-labelled p53 tracer peptide; assay type: binding; details: read-out: Fluorescence anisotropy^[c] IC50
From the text: fluorescence anisotropy competition, displacement of fluorescein-labelled p53 tracer peptide on hDM2

Going from `O=C1Nc2cc(Cl)ccc2C1c1c[nH]c2cc(Cl)ccc12` (centres unmarked) [P6] to `CN1C(=O)C(c2ccc(Cl)cc2)c2cc(Cl)ccc21` (centres unmarked) [P3], the IC50 rises from 0.94 ± 0.03 µM to over 100 µM. The first is the more potent here.

Going from `CCOCC1CC12C(=O)Nc1cc(Cl)ccc12` (centres unmarked) [P7] to `O=C(COC1CCc2cc(Cl)ccc21)N1CCC(c2ccccc2)C1` (centres unmarked) [P2], the IC50 falls from over 160 µM to 15 ± 0.1 µM. The second is the more potent here.

For `CN(C(=O)C(=O)c1ccc(Cl)cc1)c1ccc(Cl)cc1` [P4], the IC50 was over 30 µM.

same assay, conditions: […] hDM2, […] tracer, […] BSA, […] NaCl, […] DMSO, […] phosphate pH […] h; unreliable (limited solubility)

`O=C1Nc2cc(Cl)ccc2C12CC2c1ccc(Cl)cc1` (centres unmarked) [P5] was tested, and the “Fluorescence anisotropy^[c] IC50 [μM]” value was ~ 10 μM.

target: T1, hDM2; experiment: biochemical; design: fluorescence anisotropy competition, displacement of fluorescein-labelled p53 15-31 peptide from hDM2; details: read-out: FA IC50
Method: The assay was then implemented similarly to the examples above to give final compound concentrations between 160 – 0.08 µM. IC50 values were determined and curves were fit in Origin Pro 2019b using a non-linear curve fitting with the dose response fitting procedure and Levenberg Marquardt iteration algorithm. 17 5.2 Fluorescence anisotropy assays The fluorescein-labelled p5315-31 Flu transactivation domain peptide (Ac-[…](Flu)- NH2) was purchased from Peptide Synthetics. The assay was carried out using Perkin-Elmer 384-well Opti-plate assay plates (6007270). Fluorescence anisotropy assays were performed in a buffer containing 40 mM phosphate pH 7.5, 200 mM NaCl and 0.02 mg/mL bovine serum albumin (PBSA). Results were collected using a Perkin-Elmer Envision 2103 Multilabel Reader using a 431 nm mirror, 480(104) nm excitation filter, and 535(208) and 535(209) nm emission filters after 2.5 or 24 hours of incubation at room temperature. Test well anisotropy values were then calculated using the blank corrected S and P channel values using the following formula: […]

Compared with `O=C(COC1CCCC1)N1CCC(c2ccccc2)C1` (centres unmarked) [SI1], `O=C(CO[C@H]1CCc2cc(Cl)ccc21)N1CC[C@@H](c2ccccc2)C1` [P2b] is lower in IC50: over 200 µM for the first, 36.5 ± 3.5 µM for the second.

`O=C(CO[C@@H]1CCc2cc(Cl)ccc21)N1CC[C@H](c2ccccc2)C1` [ent-P2b] and `O=C(CO[C@@H]1CCc2cc(Cl)ccc21)N1CC[C@@H](c2ccccc2)C1` [P2a] are within error of each other in IC50: 28.6 ± 2.9 µM for the first, 28.2 ± 3 µM for the second.

Going from `O=C(COC1CCc2cc(Cl)ccc21)N1CCCC1` (centres unmarked) [SI2] to `O=C(CO[C@H]1CCc2cc(Cl)ccc21)N1CC[C@H](c2ccccc2)C1` [ent-P2a], the IC50 falls from over 200 µM to 26 ± 3.8 µM. The second is the more potent here.
